Legend:
Format in all cases: in vivo
[1] = test system: Beet Armyworm (Spodoptera exigua, LAPHEG); experiment: Bioassay on Beet Armyworm (BAW), 128-well diet tray assay; details: Beet Armyworm, 128-well diet tray assay, read-out: BAW rating
Method in brief: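 Second-instar larvae, one to five per well, placed on artificial diet surface-treated with 50 μg/cm^2 compound applied in 90:10 acetone-water and dried. Held 5–7 days at 25° C., 14:10 light-dark. Percent mortality recorded per well and averaged over eight wells.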

[2] = test system: Cabbage Looper (Trichoplusia ni, TRIPNI); experiment: Bioassay on Cabbage Looper (CL), 128-well diet tray assay; details: Trichoplusia ni; Cabbage Looper, 128-well diet tray assay; read-out: CL rating
Method in brief: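 Second-instar larvae, one to five per well, were placed on artificial diet surface-treated with 50 μg/cm^2 test molecule applied in 90:10 acetone-water and dried, eight wells per molecule. Trays were covered, vented and held at 25° C., 14:10 light-dark for five to seven days; percent mortality per well was averaged.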

[3] = test system: Yellow Fever Mosquito (Aedes aegypti, AEDSAE); experiment: Bioassay on Yellow Fever Mosquito (YFM), 96-well plate larval assay; details: Yellow Fever Mosquito, 96-well plate larval assay
Method in brief: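 Aedes aegypti larvae (about 1 day old) in liver-powder water were added to plates dispensed from DMSO master plates (4000 ppm stock) diluted with 90:10 water/acetone; six replicate plates per master. Lidded plates were held at room temperature for 3 days, then each well was scored for mortality.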

Structure (SMILES) | pest or weed control at 50 µg/cm2 [1] | pest or weed control at 50 µg/cm2 [2] | YFM rating [3]
CN(C(=O)CC(F)(F)F)c1ccc(NC(=O)c2cc(NC(=O)[C@H]3[C@H](c4cc(Cl)cc(Cl)c4)C3(Cl)Cl)ccc2Cl)cc1 (relative stereo) [PF30, trans-2-Chloro-5-(2,2-dichloro-3-(3,5-dichlorophenyl)cyclopropane-1-carboxamido)-N-(4-(3,3,3-trifluoro-N-methylpropanamido)phenyl)benzamide] | 50 to 100% | 50 to 100% | B (More than 0-Less than 80)
C[C@]1(c2ccc(OC(F)(F)F)cc2)[C@H](C(=O)Nc2ccc(Cl)c(C(=O)Nc3ccc(F)cc3)c2)C1(Cl)Cl (relative stereo) [PF32, trans-2-Chloro-5-(2,2-dichloro-3-methyl-3-(4-(trifluoromethoxy)phenyl)cyclopropanecarboxamido)-N-(4-fluorophenyl)benzamide] | 50 to 100% | 50 to 100% | A (80-100)
O=C(Nc1ccc(F)cc1)c1cc(NC(=O)[C@H]2[C@H](c3cc(Cl)cc(Br)c3)C2(Cl)Cl)ccc1Cl (relative stereo) [PF37, 5-(trans-3-(3-Bromo-5-chlorophenyl)-2,2-dichlorocyclopropane-1-carboxamido)-2-chloro-N-(4-fluorophenyl)benzamide] | 50 to 100% | 50 to 100% | B (More than 0-Less than 80)
CC(=O)Nc1ccc(NC(=O)c2cc(NC(=O)[C@H]3[C@H](c4cc(Cl)cc(Cl)c4)C3(Cl)Cl)ccc2Cl)c(F)c1 (relative stereo) [PF40, trans-N-(4-Acetamido-2-fluorophenyl)-2-chloro-5-(2,2-dichloro-3-(3,5-dichlorophenyl)cyclopropane-1-carboxamido)benzamide] | 50 to 100% | 50 to 100% | A (80-100)
CC(=O)Nc1ccc(NC(=O)c2cc(NC(=O)[C@H]3[C@H](c4cc(Cl)c(Cl)c(Cl)c4)C3(Cl)Cl)ccc2Cl)c(F)c1 (relative stereo) [PF42, trans-N-(4-Acetamido-2-fluorophenyl)-2-chloro-5-(2,2-dichloro-3-(3,4,5-trichlorophenyl)cyclopropane-1-carboxamido)benzamide] | 50 to 100% | 50 to 100% | A (80-100)
Cc1cc(NC(=O)c2cc(NC(=O)[C@H]3[C@H](c4cc(Cl)cc(Cl)c4)C3(Cl)Cl)ccc2Cl)ccc1F (relative stereo) [PF44, trans-2-Chloro-5-(2,2-dichloro-3-(3,5-dichlorophenyl)cyclopropane-1-carboxamido)-N-(4-fluoro-3-methylphenyl)benzamide] | 50 to 100% | 50 to 100% | A (80-100)
Cc1cc(F)ccc1NC(=O)c1cc(NC(=O)[C@H]2[C@H](c3ccc(Cl)c(Cl)c3)C2(Cl)Cl)ccc1Cl (relative stereo) [PF46, trans-2-Chloro-5-(2,2-dichloro-3-(3,4-dichlorophenyl)cyclopropane-1-carboxamido)-N-(4-fluoro-2-methylphenyl)benzamide] | 50 to 100% | 50 to 100% | A (80-100)
Cc1cc(F)ccc1NC(=O)c1cc(NC(=O)[C@H]2[C@H](c3ccc(F)c(Cl)c3)C2(Cl)Cl)ccc1Cl (relative stereo) [PF48, trans-2-Chloro-5-(2,2-dichloro-3-(3-chloro-4-fluorophenyl)cyclopropane-1-carboxamido)-N-(4-fluoro-2-methylphenyl)benzamide] | 50 to 100% | 50 to 100% | A (80-100)
Cc1cc(F)ccc1N(C)C(=O)c1cc(NC(=O)[C@H]2[C@H](c3cc(Cl)cc(Cl)c3)C2(Cl)Cl)ccc1Cl (relative stereo) [PF49, trans-2-Chloro-5-(2,2-dichloro-3-(3,5-dichlorophenyl)cyclopropane-1-carboxamido)-N-(4-fluoro-2-methylphenyl)-N-methylbenzamide] | 50 to 100% | 50 to 100% | B (More than 0-Less than 80)
Cc1cc(F)ccc1N(C)C(=O)c1cc(NC(=O)[C@H]2[C@H](c3ccc(F)c(Cl)c3)C2(Cl)Cl)ccc1Cl (relative stereo) [PF50, trans-2-Chloro-5-(2,2-dichloro-3-(3-chloro-4-fluorophenyl)cyclopropane-1-carboxamido)-N-(4-fluoro-2-methylphenyl)-N-methylbenzamide] | 50 to 100% | 50 to 100% | A (80-100)
COc1cc(NC(=O)c2cc(NC(=O)[C@H]3[C@H](c4cc(Cl)cc(Cl)c4)C3(Cl)Cl)ccc2Cl)ccc1F (relative stereo) [PF52, trans-2-Chloro-5-(2,2-dichloro-3-(3,5-dichlorophenyl)cyclopropane-1-carboxamido)-N-(4-fluoro-3-methoxyphenyl)benzamide] | 50 to 100% | 50 to 100% | A (80-100)
Cc1cc(NC(=O)c2cc(NC(=O)[C@H]3[C@H](c4cc(Cl)cc(Cl)c4)C3(Cl)Cl)ccc2Cl)cc(C)c1F (relative stereo) [PF53, trans-2-Chloro-5-(2,2-dichloro-3-(3,5-dichlorophenyl)cyclopropane-1-carboxamido)-N-(4-fluoro-3,5-dimethylphenyl)benzamide] | 50 to 100% | 50 to 100% | A (80-100)
Cc1c(F)ccc(NC(=O)c2cc(NC(=O)[C@H]3[C@H](c4cc(Cl)cc(Cl)c4)C3(Cl)Cl)ccc2Cl)c1C (relative stereo) [PF54, trans-2-Chloro-5-(2,2-dichloro-3-(3,5-dichlorophenyl)cyclopropane-1-carboxamido)-N-(4-fluoro-2,3-dimethylphenyl)benzamide] | 50 to 100% | 50 to 100% | A (80-100)
O=C(Nc1ccc(-n2ccnc2)cc1)c1cc(NC(=O)[C@H]2[C@H](c3cc(Cl)cc(Cl)c3)C2(Cl)Cl)ccc1Cl (relative stereo) [PF56, trans-N-(4-(1H-Imidazol-1-yl)phenyl)-2-chloro-5-(2,2-dichloro-3-(3,5-dichlorophenyl)cyclopropane-1-carboxamido)benzamide] | 50 to 100% | 50 to 100% | A (80-100)
O=C(Nc1ccc(-n2cncn2)cc1)c1cc(NC(=O)[C@H]2[C@H](c3cc(Cl)cc(Cl)c3)C2(Cl)Cl)ccc1Cl (relative stereo) [PF57, trans-N-(4-(1H-1,2,4-Triazol-1-yl)phenyl)-2-chloro-5-(2,2-dichloro-3-(3,5-dichlorophenyl)cyclopropane-1-carboxamido)benzamide] | 50 to 100% | 50 to 100% | A (80-100)
COc1cc(F)ccc1NC(=O)c1cc(NC(=O)[C@H]2[C@H](c3cc(Cl)cc(Cl)c3)C2(Cl)Cl)ccc1Cl (relative stereo) [PF58, trans-2-Chloro-5-(2,2-dichloro-3-(3,5-dichlorophenyl)cyclopropane-1-carboxamido)-N-(4-fluoro-2-methoxyphenyl)benzamide] | 50 to 100% | 50 to 100% | A (80-100)
O=C(Nc1ccc(OCC(F)(F)F)cc1)c1cc(NC(=O)[C@H]2[C@H](c3cc(Cl)cc(Cl)c3)C2(Cl)Cl)ccc1Cl (relative stereo) [PF62, trans-2-Chloro-5-(2,2-dichloro-3-(3,5-dichlorophenyl)cyclopropane-1-carboxamido)-N-(4-(2,2,2-trifluoroethoxy)phenyl)benzamide] | 50 to 100% | 50 to 100% | A (80-100)
O=C(Nc1ccc(F)c(F)c1F)c1cc(NC(=O)[C@H]2[C@H](c3cc(Cl)cc(Cl)c3)C2(Cl)Cl)ccc1Cl (relative stereo) [PF68, trans-2-Chloro-5-(2,2-dichloro-3-(3,5-dichlorophenyl)cyclopropane-1-carboxamido)-N-(2,3,4-trifluorophenyl)benzamide] | 50 to 100% | 50 to 100% | A (80-100)
N#Cc1ccccc1NC(=O)c1cc(NC(=O)[C@H]2[C@H](c3cc(Cl)cc(Cl)c3)C2(Cl)Cl)ccc1Cl (relative stereo) [PF72, trans-2-Chloro-N-(2-cyanophenyl)-5-(2,2-dichloro-3-(3,5-dichlorophenyl)cyclopropane-1-carboxamido)benzamide] | 50 to 100% | 50 to 100% | A (80-100)
O=C(Nc1ccc([N+](=O)[O-])cc1F)c1cc(NC(=O)[C@H]2[C@H](c3cc(Cl)cc(Cl)c3)C2(Cl)Cl)ccc1Cl (relative stereo) [PF74, trans-2-Chloro-5-(2,2-dichloro-3-(3,5-dichlorophenyl)cyclopropane-1-carboxamido)-N-(2-fluoro-4-nitrophenyl)benzamide] | 50 to 100% | 50 to 100% | A (80-100)
O=C(Nc1cc(Cl)cc(Cl)c1)c1cc(NC(=O)[C@H]2[C@H](c3cc(Cl)cc(Cl)c3)C2(Cl)Cl)ccc1Cl (relative stereo) [PF76, trans-2-Chloro-5-(2,2-dichloro-3-(3,5-dichlorophenyl)cyclopropane-1-carboxamido)-N-(3,5-dichlorophenyl)benzamide] | 50 to 100% | 50 to 100% | A (80-100)
